# Experimental data: patent publication US20260345526A1, “Amphenicol Adjuvant Improves Bioavailability and Efficacy” (priority 2023, published 2026)
# Several values for one entry are separate records, joined by “and”; a condition that tells them apart may be missing. Equal entries are not always repeated.
# What was measured:
# P. salmonis = experiment: Minimum inhibitory concentration of florfenicol on P. salmonis in infected SHK-1 cells; assay type: cell-based
# Experimental: FIGS. 1 and 2. Cytotoxicity of andrographolide sodium bisulfite (PubChem CID: 133555830, “AP1”) and andrographolide sulphonate (PubChem CID: 72191954, “AP2”) in combination with florfenicol in SHK-1 cells treated and infected with P. salmonis. Cells were treated with AP1 (FIG. 1) and AP2 (FIG. 2) at 4.6 and 9 ng/mL and florfenicol in the range of 0,125; 0,250; 0.5 and […]. LDH analysis was done day 12 post-infection. Cells+Ps, cells infected without treatment; Vehicle+Ps, cells infected and treated with ethanol. “Flo sin AP” means florfenicol without an andrographolide; “Flo+AP” means florfenicol with an andrographolide. The percentage of cytotoxicity was calculated with respect to the control of total lysis of cells and the negative control (cells without treatment and infection) with the control florfenicol without AP. […] ANOVA y Fisher.
# The effect of andrographolide on the antibiotic action of florfenicol, was corroborated by LDH in the supernatant in cells with different treatments showing the synergistic effect of andrographolide (AP) in the range of 0.125; 0.25 and 0.5 μg/mL of the antibiotic.
# [1] = Florfenicol residue in muscle of coho salmon after treatment (Table 1); assay type: in vivo; set-up: florfenicol (residue): unit not given here; settings: for florfenicol (residue): florfenicol 20 mg/kg
# Experimental: Florfenicol (“FF”) was administered at a dose of 20 mg/kg at 15 days and at 30 days before harvesting. Andrographolide and seaweed powder were mixed with conventional fish feed at a dose of 1.056 kg seaweed powder and 0.044 kg andrographolide (“NATCONTROL”) per ton of feed. The NORMAL group corresponds to fish fed antibiotic without andrographolide.
# So the farmer can treat with antibiotic closer to harvest, and harvested fish have far less antibiotic residue in their meat. […] This enables one to use a smaller dose of antibiotic to achieve the same effect. The residues of florfenicol at various days post-treatment indicate a more-rapid metabolization of florfenicol in fish muscle receiving andrographolide (<24 or not detected).
# [2] = Plasma concentration of florfenicol over time; assay type: in vivo, coho salmon
# From the text: FIG. 3. Plasma concentration of florfenicol over time: distribution of levels of plasma florfenicol. Y axis=Florfenicol plasma concentration (g/L). X axis=time (t=0, 5 days and 12 days). For each of the three days reported, the left bar is for fish treated with florfenicol alone, the right bar is for fish treated with florfenicol and also fed andrographolide.
# (§1) Odd-numbered cages received feed medicated with both florfenicol and with andrographolide (0.044 kg andrographolide per ton of feed) for 15 days. Even-numbered cages received feed medicated with only florfenicol. X Axis=day; Y axis (left)=accumulated mortality; Y axis (right)=periodic mortality. For each period, the left bar is florfenicol alone, the right bar is florfenicol and andrographolide. For cumulative mortality, the upper line (at date #5) is florfenicol alone, the lower line is florfenicol and andrographolide.
# coho salmon [3] = experiment: Mortality and cause of death in coho salmon; assay type: in vivo
# From the text: FIG. 4 measures accumulated mortality over 14 days for coho salmon treated with florfenicol alone and combined with andrographolide.
# as §1
# In addition, it changes the causes of mortality. Table 2 compares the cause of death for the two groups.
# coho salmon [4] = experiment: Quality of the fish at harvest time; assay type: in vivo
# From the text: as §1
# Table 3 compares the quality of the fish at harvest time. Premium Quality (“PRM”) fish have an absence of skin lesions and adequate body weight. A total of 332,315 fish were treated with florfenicol+andrographolide (“Impares Nat Control”) and 301,334 fish were treated with florfenicol alone (“Pares Normal”).
# [5] = florfenicol combined with the andrographolide (AP1 or AP2)
# [6] = andrographolide co-fed with florfenicol, coho salmon
# [7] = absence of skin lesions and adequate body weight
compound,measurement,setting,value
"C=C1CCC2[C@](C)(CO)[C@H](O)CC[C@@]2(C)[C@@H]1CC(C1C(=O)OC[C@H]1O)S(=O)(=O)[O-].[Na+] (stereo partly shown) [AP1, andrographolide sodium bisulfite]",minimum inhibitory concentration of florfenicol,P. salmonis; [5],0.25 µg/mL
C=C1CC[C@@H]2[C@](C)(CO)[C@H](O)CC[C@@]2(C)[C@@H]1C/C=C1/C(=O)OC[C@H]1O [andrographolide],in vivo metabolism and clearance of florfenicol,[1]; [6],hastens the in vivo metabolism and clearance of florfenicol
same,antibiotic (florfenicol) concentration in plasma,[2]; [6],increases antibiotic concentration in plasma
same,average plasma florfenicol levels,"[2]; fish treated with florfenicol and fed andrographolide vs florfenicol alone, 5 and 12 days",higher average plasma florfenicol levels
same,mortality,coho salmon [3]; andrographolide with florfenicol vs florfenicol alone,decreases mortality
CS(=O)(=O)c1ccc([C@@H](O)[C@@H](CF)NC(=O)C(Cl)Cl)cc1 [florfenicol],minimum inhibitory concentration of florfenicol,P. salmonis; without andrographolide,0.5 µg/mL
same,florfenicol (residue),"[1]; Cage No. 101, andrographolide diet, Test Report No. 44.217-22",<24
same,florfenicol (residue),"[1]; Cage No. 102, normal diet (no andrographolide), Test Report No. 44.218-22",270 and 363 and 502
same,florfenicol (residue),"[1]; Cage No. 103, andrographolide diet, Test Report No. 44.215-22",<24
same,residues of florfenicol in fish muscle,"[1]; fish receiving andrographolide, various days post-treatment",< 24
same,Cause of death: Mechanical damage,coho salmon [3]; Example 3,41.6 % of Total Deaths
same,Cause of death: No apparent cause,coho salmon [3]; Example 3,9.3 % of Total Deaths
same,Cause of death: Runt (very small) fish,coho salmon [3]; Example 3,0 % of Total Deaths
same,Cause of death: SRS (skin lesions),coho salmon [3]; Example 3,25.0 % of Total Deaths
same,Time of death: In holding pen before harvesting,coho salmon [3]; Example 3,10.9 % of Total Deaths
same,"FA fish, %",coho salmon [4],4.65%
same,"FA fish, No",coho salmon [4],14012 No
same,"GA1 fish, %",coho salmon [4],17.87%
same,"GA1 fish, No",coho salmon [4],53835 No
same,"GA2 fish, %",coho salmon [4],1.426%
same,"GA2 fish, No",coho salmon [4],4297 No
same,percentage of Premium Quality fish,coho salmon [4],76.1%
same,"PRM (Premium Quality) fish, %",coho salmon [4]; [7],76.06%
same,"PRM (Premium Quality) fish, No",coho salmon [4]; [7],229190 No
andrographolide sulphonate [AP2],minimum inhibitory concentration of florfenicol,P. salmonis; [5],0.25 µg/mL
